Laboratory results taken from patent US20050202423A1, “Method for identifying compounds or lead structures against rna target motifs and rna/protein interactions” (priority 2000, published 2005).
Like-named read-outs stand apart in the source and are kept apart here.

Legend:
Rev protein [1] = target: T1, Rev protein (Human immunodeficiency virus type 1 group M subtype B, UniProt P04618); assay: Surface plasmon resonance, Rev protein; format: binding, HIV; settings: 100 μM antibiotic, 25° C.
T1 construct: the intact Rev protein and by the Rev peptide
Method: (§1) 20 μl 100 μM antibiotic in test buffer was injected at 25° C., rate 10 μl/s.
(§2) Surface plasmon resonance studies were performed with a Biocore 3000 instrument in the automatic mode.

Rev peptide / AIR = target: T2, Rev peptide / AIR (Human immunodeficiency virus type 1 group M subtype B, UniProt P04618); assay: AIR screen (screen 2) of antibiotics: inhibition of Rev-activated AIR; format: biochemical, HIV; settings: for AIR screen outcome (inhibition of AIR relative to HHR): 100 μM antibiotic, 250 nM Rev peptide
T2 construct: includes aminoacids 34 to 50 of the Rev protein
Method: (§3) Cleavage reactions with multiple turnover were performed at 32° C. in a test buffer containing 50 mM Tris (pH 7.9) and 25 mM NaCl. The total volume of the reactions was 50 μl in plates with 96 flat bottom wells. The fluorescence measurements were performed at an excitation wavelength of 489 nm, FAM emission at 520 nm and with the fluorescence detector Ascent Fluoroscan FL, as described by Jenne, A. et al., Rapid identification and characterization of hammerhead-ribozyme inhibitors using fluorescence-based technology, Nat Biotechnol 19, 56-61 (2001). Ribozyme (10 nM) and FRET-labeled substrate (200 nM) were first incubated in test buffer at room temperature for 5 min, followed by optional addition of Rev and/or antibiotic. The reactions were then incubated for 5 min at 32° C. and started by the addition of MgCl2 to a final concentration of 8 mM, using the dispensing function of the fluorometer. Negative controls were always included for reactions without ribozyme and were subtracted after the measurements.
(§4) Two different screening experiments were performed, one using the RRR reporter construct and the other using AIR. […] Each reaction which contained antibiotics also contained Rev peptide. For each antibiotic, three different reactions were performed: HHR, reporter construct (RRR or AIR), negative controls, which only contained antibiotic and Rev and substrate. The antibiotic concentrations were 100 μM in each case. After subtraction of the negative control, the rise in fluorescence in the first five minutes, corresponding to the initial rate of reaction, was divided by the rise in fluorescence in the standard reaction without antibiotic, containing the active state of the ribozyme (see also FIG. 10).
[…]. […] […].

AIR = assay: Dependence of AIR cleavage activity on Rev (FRET ribozyme reaction); format: biochemical; settings: for EC50: read-out: Kact (activation of AIR)
Method: (§5) Negative control reactions without ribozymes were subtracted.
as §3

RRR = assay: Dependence of RRR cleavage activity on Rev (FRET ribozyme reaction); format: biochemical; settings: for IC50: read-out: K inh (inhibition of RRR at the half maximal concentration of Rev)
Method: as §5, §3

hammerhead ribozyme HHR = assay: HHR cleavage reaction (internal control, FRET); format: biochemical
Method: as §3, §4

reverse transcriptase = reverse transcriptase (Human immunodeficiency virus type 1 group M subtype B, UniProt P04585); assay: Standard transcriptase assay (specificity control); format: biochemical, HIV-1; settings: 2.5 μM
Method: As a control of the target protein reverse transcriptase, another nucleic acid binding protein from HIV-1 was tested, to check the specificity of the identified Rev-binding antibiotics.

RRR-RNA = assay: Surface plasmon resonance, RRR-RNA surface; format: binding; settings: 100 μM antibiotic, 25° C.
Method: 20 μl 100 μM antibiotic in test buffer was injected at 25° C., rate 10 μl/s. […] There is no binding to RRR-derivatized surfaces detectable. Coumermycin only binds to Rev, but not to ribozymes. FIG. 13b illustrates the interaction between novobiocin, rosamicin, griseofulvin, streptolydigin and patulin with surfaces derivatized with Rev protein.
Surface plasmon resonance studies were performed with a Biocore 3000 instrument in the automatic mode. Rev protein and peptide surfaces were prepared by injection of 100 μM solutions in 60 mM NaOAc, pH 5.7 on EDC/NHS-activated CM5-Chips, which gave 1800 RU immobilized peptide and 5000 RU protein.

Rev peptide = target: T3, Rev peptide (Human immunodeficiency virus type 1 group M subtype B, UniProt P04618); assay: Surface plasmon resonance, Rev peptide; format: binding, HIV; settings: 100 μM antibiotic, 25° C.
T3 construct: includes aminoacids 34 to 50 of the Rev protein
Method: as §1, §2

Rev peptide / RRR = target: T4, Rev peptide / RRR (Human immunodeficiency virus type 1 group M subtype B, UniProt P04618); assay: RRR screen (screen 1) of antibiotics: restoration of cleavage activity; format: biochemical, HIV; settings: 100 μM, 1 μM Rev-peptide
T4 construct: includes aminoacids 34 to 50 of the Rev protein
Method: as §3, with “Negative controls were always included for reactions without ribozyme and were subtracted after the measurements.” left out
Two different screening experiments were performed, one using the RRR reporter construct and the other using AIR. […] After subtraction of the negative control, the rise in fluorescence in the first five minutes, corresponding to the initial rate of reaction, was divided by the rise in fluorescence in the standard reaction without antibiotic, containing the active state of the ribozyme (see also FIG. 10). […]

Rev protein [2] = target: T5, Rev protein (HIV-1, UniProt P04618 P04618:1-116); assay: competition; 2 uM RNA competes with IRK-1 for 200 nM Rev; 10 mM HEPES pH 7.4, 100 mM NaCl, 10 mM MgCl2; settings: tags: full-length
Rev protein [3] = target: T5, Rev protein; assay: cleavage_in_vitro; K act of ribozyme; 8 mM MgCl2, 32 C; settings: tags: full-length
Rev protein [4] = target: Rev protein (HIV-1, UniProt P04618 P04618:1-116); assay: inhibition; K inh of ribozyme; 8 mM MgCl2, 32 C; settings: tags: full-length; label: biotin (SPR surface) or 5'-32P (filter); hammerhead ribozyme

In the case of `O=C1C=C2C(=CCOC2O)O1` (centres unmarked) [patulin], the “binding to surface derivatized with Rev protein” value (shortened to “binding … with Rev protein”) (Rev protein [1]) is reported as “exhibited binding” and the “AIR screen outcome (inhibition of AIR relative to HHR)” value (Rev peptide / AIR) is reported as “Rev inhibitors”.

`C=C(NC(=O)c1csc(-c2nc3c(cc2O)-c2nc(cs2)C(=O)NC(C(C)O)C(=O)N/C(=C\C)c2nc(cs2)C(=O)NC2CC(O)C(=O)OCc4cccc5[nH]c(c(C)c45)C(=O)SCC(NC(=O)c4csc2n4)c2nc-3cs2)n1)C(N)=O` (centres unmarked) [nosiheptide] was tested, and the “AIR screen outcome (inhibition of AIR relative to HHR)” value (Rev peptide / AIR) was “Rev inhibitors”.

With `CO[C@@H]1[C@@H](OC(N)=O)[C@@H](O)[C@H](Oc2ccc3c(O)c(NC(=O)c4ccc(O)c(CC=C(C)C)c4)c(=O)oc3c2C)OC1(C)C` [novobiocin] the “binding … with Rev protein” value (Rev protein [1]) was “exhibited binding”.

For `CNC(=O)[C@@H](C)[C@H]1C(=O)/C(=C(O)/C=C/C(C)=C/[C@@H](C)[C@H]2O[C@@]3(C)O[C@H](C=C[C@@]34CO4)[C@@H]2C)C(=O)N1[C@@H]1CC[C@H](O)[C@H](C)O1` [streptolydigin], the “binding … with Rev protein” value (Rev protein [1]) was “Only the antibiotics novobiocin and patulin, which were identified in the course of screening, exhibited binding to Rev”.

“Rev peptide: Rev peptide, which includes aminoacids 34 to 50 of the Rev protein (TRQARRNRRRRWRERQR; UniProt P04618 34-50, looked up, fragment)” was tested, and the “concentration above which AIR is inhibited” value (AIR) was “above 800 nM”, the “effect of Rev on AIR” value (AIR; 250 nM Rev) was “activation” and the EC50 (AIR) was 170 nM. The “effect of Rev on ribozyme RRR” value (RRR; 1 μM Rev-peptide) was “inhibition”, the IC50 (RRR; Rev peptide) was 464 nM and the “concentration above which HHR is inhibited” value (hammerhead ribozyme HHR) was “more than 1 μM”. For the same molecule, the “initial activity of HHR” value (hammerhead ribozyme HHR; 1 μM Rev) was 93%, the “effect of Rev on wildtype HHR” value (hammerhead ribozyme HHR; 1 μM Rev-peptide) was “hardly affected” and the “concentration above which HHR is inhibited” value (hammerhead ribozyme HHR; listed as Rev) was “above 1 μM”.

In the case of `Nc1ccn([C@H]2CC[C@@H](COP(=O)(O)OP(=O)(O)OP(=O)(O)O)O2)c(=O)n1` [ddCTP], the “inhibition of reverse transcriptase” value (reverse transcriptase) is reported as “total inhibition”.

With Rev protein: intact Rev protein of HIV the “concentration at which AIR is still activated” value (AIR) was “above 5 μM”, the “inhibition of AIR by high concentrations” value (AIR) was “no observed inhibition” and the EC50 (AIR) was 192 nM. For the same molecule, the “concentration above which RRR is inhibited” value (RRR) was “above 1 μM” and the IC50 (RRR; Rev protein) was 1700 nM.

With `COC1=CC(=O)C[C@@H](C)[C@]12Oc1c(Cl)c(OC)cc(OC)c1C2=O` [griseofulvin] the “binding … with Rev protein” value (Rev protein [1]) was “Only the antibiotics novobiocin and patulin, which were identified in the course of screening, exhibited binding to Rev”.

For coumermycin A1, the “binding to RRR-derivatized surface” value (RRR-RNA) was “no binding”, the “binding to surface derivatized with Rev peptide” value (Rev peptide) was “binding” and the “effect on wildtype HHR” value (hammerhead ribozyme HHR; 100 μM with 1 μM Rev-peptide) was “hardly affected”. The “binding … with Rev protein” value (Rev protein [1]) was “binding”, the “AIR screen outcome (inhibition of AIR relative to HHR)” value (Rev peptide / AIR) was “Rev inhibitors” and the “reversal of the action of Rev on AIR” value (Rev peptide / AIR; 100 μM, 250 nM Rev) was “fully reversed”. For the same molecule, the “reversal of the action of Rev on RRR” value (Rev peptide / RRR) was “fully reversed”.

`CC[C@H]1OC(=O)C[C@@H](O)[C@H](C)[C@@H](O[C@@H]2O[C@H](C)C[C@H](N(C)C)[C@H]2O)[C@@H](CC=O)C[C@@H](C)C(=O)/C=C/[C@]2(C)O[C@H]2[C@@H]1C` [rosamicin] was tested, and the “binding … with Rev protein” value (Rev protein [1]) was “Only the antibiotics novobiocin and patulin, which were identified in the course of screening, exhibited binding to Rev”.

GGGAGGUGGACUCCAGCUUCGGCUGUUGAGAUACACC (ssRNA) [Seq 5]: binds (Rev protein [2]).

B1: AIR (aptamer-inhibited ribozyme) (ssRNA)
RNA: GGGACUCGCUUCGGCUUGAGAUACCAAAAAGGGUCCUCUGAUGAGGCCGUUAGGCCGAAACUCGU
With B1 the “apparent K (half saturation)” value (Rev protein [3]) was 192 nM.

B2: RRR (Rev-responsive ribozyme, RBE in stem II) (ssRNA)
RNA: GGGUCCUCUGAUGAGCUCUGGGCGCAGCUUCGGCUGACGGUACUUGCGAAACUCGU
With B2 the “apparent K (half saturation)” value (Rev protein [4]) was 1700 nM.
